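1) Cells in 96-well plates. 2) Compound, 48 h, 5 concentrations. 3) Linear interpolation between surrounding doses. 4) Unreached endpoint = highest concentration. Abbreviation: GI50, concentration required for 50% inhibition of growth.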 Active and inactive are the calls of the source. Cut-off read from the data, not from the text of the source: active = GI50 up to about 1.1 µM and inactive = higher.
Columns and labels:
Assay in all cases: DTP human tumour cell line panel, 48 h
A549 = tested on: A549
HOP-92 = tested on: HOP-92
SK-MEL-2 = tested on: SK-MEL-2
Hs-578T = tested on: Hs-578T
MDA-MB-435 = tested on: MDA-MB-435
MDA-MB-231 = tested on: MDA-MB-231
NCI-H23 = tested on: NCI-H23
TK-10 = tested on: TK-10
HCT-116 = tested on: HCT-116
SK-MEL-5 = tested on: SK-MEL-5
LOX IMVI = tested on: LOX IMVI
MDA-N = tested on: MDA-N
786-0 = tested on: 786-0
A498 = tested on: A498
EKVX = tested on: EKVX
SW-620 = tested on: SW-620
BT-549 = tested on: BT-549
RPMI-8226 = tested on: RPMI-8226
HCC 2998 = tested on: HCC 2998
HT-29 = tested on: HT-29

Row | Structure (SMILES) | GI50 (A549) | GI50 (HOP-92) | GI50 (SK-MEL-2) | GI50 (Hs-578T) | GI50 (MDA-MB-435) | GI50 (MDA-MB-231) | GI50 (NCI-H23) | GI50 (TK-10) | GI50 (HCT-116) | GI50 (SK-MEL-5) | GI50 (LOX IMVI) | GI50 (MDA-N) | GI50 (786-0) | GI50 (A498) | GI50 (EKVX) | GI50 (SW-620) | GI50 (BT-549) | GI50 (RPMI-8226) | GI50 (HCC 2998) | GI50 (HT-29)
1 | CC(=O)Nc1cc2cc(NS(=O)(=O)c3ccc(Cl)c(Cl)c3)ccc2oc1=O | 32.7 µM (inactive) | 20.8 µM (inactive) | 20.3 µM (inactive) | 22.4 µM (inactive) | 36.1 µM (inactive) | 17.2 µM (inactive) | > 100 µM (inactive) | 43.2 µM (inactive) | 28.2 µM (inactive) | 28.1 µM (inactive) | 20 µM (inactive) | 51.8 µM (inactive) | 17.4 µM (inactive) | 20 µM (inactive) | 68.5 µM (inactive) | 50.7 µM (inactive) | 49.1 µM (inactive) | 40.3 µM (inactive) | 40.5 µM (inactive) | 35.3 µM (inactive)
2 | [N-]=[N+]=Nc1c(C=O)c(=O)n(-c2ccccc2)c2ccccc12 | 39.3 µM (inactive) | 13.4 µM (inactive) | 29.2 µM (inactive) | 25.1 µM (inactive) | 18.5 µM (inactive) | 40.3 µM (inactive) | 16.8 µM (inactive) | 19.5 µM (inactive) | > 10 µM (inactive) | 14.1 µM (inactive) | 14.8 µM (inactive) | 37.8 µM (inactive) | 18.5 µM (inactive) | 0.0778 µM (active) | – | 2.51 µM (inactive) | 31.8 µM (inactive) | > 10 µM (inactive) | 19.1 µM (inactive) | 23.1 µM (inactive)
3 | O=c1c2cc(I)ccc2nc(Sc2ncccc2[N+](=O)[O-])n1Cc1ccccc1 | 28 µM (inactive) | 5.33 µM (inactive) | 7.38 µM (inactive) | 16.7 µM (inactive) | 23.7 µM (inactive) | 21.1 µM (inactive) | 24 µM (inactive) | 37.2 µM (inactive) | 18.8 µM (inactive) | 18.3 µM (inactive) | 34.3 µM (inactive) | 20.4 µM (inactive) | 23.2 µM (inactive) | 24.6 µM (inactive) | 17.7 µM (inactive) | 33.1 µM (inactive) | 11.6 µM (inactive) | 19.1 µM (inactive) | 26.7 µM (inactive) | 34.2 µM (inactive)
4 | CC1(C)CN=C(Nc2ccc(F)c(F)c2)S1 | > 100 µM (inactive) | 31.4 µM (inactive) | > 100 µM (inactive) | > 100 µM (inactive) | > 100 µM (inactive) | > 100 µM (inactive) | > 100 µM (inactive) | > 100 µM (inactive) | > 100 µM (inactive) | > 100 µM (inactive) | > 100 µM (inactive) | > 100 µM (inactive) | > 100 µM (inactive) | – | > 100 µM (inactive) | > 100 µM (inactive) | > 100 µM (inactive) | > 100 µM (inactive) | > 100 µM (inactive) | > 100 µM (inactive)
5 | BrCCC[P+](c1ccccc1)(c1ccccc1)c1ccccc1 | 25.6 µM (inactive) | 8 µM (inactive) | 26.7 µM (inactive) | 15.5 µM (inactive) | 4.61 µM (inactive) | 8.13 µM (inactive) | 12.3 µM (inactive) | 80.9 µM (inactive) | 1.64 µM (inactive) | 6.27 µM (inactive) | 0.736 µM (active) | 8.2 µM (inactive) | 13.5 µM (inactive) | 49.5 µM (inactive) | 14.4 µM (inactive) | 25.5 µM (inactive) | 8.39 µM (inactive) | 0.615 µM (active) | > 68.4 µM (inactive) | 15.9 µM (inactive)
6 | Nc1nc2c(C(=O)O)c3ccc([N+](=O)[O-])cc3c(=O)n2c2ccccc12 | 26.2 µM (inactive) | – | 24.9 µM (inactive) | 23.8 µM (inactive) | 27.2 µM (inactive) | 24.9 µM (inactive) | 22.6 µM (inactive) | – | 16.9 µM (inactive) | 24.7 µM (inactive) | 11.9 µM (inactive) | 22.8 µM (inactive) | 20.6 µM (inactive) | 43.7 µM (inactive) | 27.9 µM (inactive) | 39 µM (inactive) | 27.9 µM (inactive) | 27.5 µM (inactive) | 32.3 µM (inactive) | 34.7 µM (inactive)
7 | NS(=O)(=O)c1ccc(NCc2cnc3ccccc3n2)cc1 | > 100 µM (inactive) | > 100 µM (inactive) | > 100 µM (inactive) | > 100 µM (inactive) | > 100 µM (inactive) | > 100 µM (inactive) | > 100 µM (inactive) | > 100 µM (inactive) | > 100 µM (inactive) | > 100 µM (inactive) | – | > 100 µM (inactive) | > 100 µM (inactive) | > 100 µM (inactive) | > 100 µM (inactive) | > 100 µM (inactive) | > 100 µM (inactive) | > 100 µM (inactive) | > 100 µM (inactive) | > 100 µM (inactive)
8 | CC(C(=O)N1C(=O)N(C(=O)C(C)C(O)c2ccccc2)C(c2ccccc2)C1c1ccccc1)C(O)c1ccccc1 (stereo unspecified) | 4.85 µM (inactive) | 5.92 µM (inactive) | 10.2 µM (inactive) | 11.1 µM (inactive) | 15 µM (inactive) | 16.6 µM (inactive) | 16.5 µM (inactive) | 22.6 µM (inactive) | 6.21 µM (inactive) | > 10 µM (inactive) | 11.9 µM (inactive) | > 10 µM (inactive) | 26.1 µM (inactive) | – | – | 28.7 µM (inactive) | 12.6 µM (inactive) | 4.01 µM (inactive) | 20.9 µM (inactive) | 5 µM (inactive)
9 | COc1cc(O)c2c(=O)c3ccccc3n(C)c2c1 | > 100 µM (inactive) | 46.1 µM (inactive) | > 100 µM (inactive) | 13.4 µM (inactive) | > 100 µM (inactive) | 71.3 µM (inactive) | > 100 µM (inactive) | 20.1 µM (inactive) | 10.2 µM (inactive) | 4.66 µM (inactive) | 84.5 µM (inactive) | > 100 µM (inactive) | 21.5 µM (inactive) | 90.4 µM (inactive) | 0.555 µM (active) | 63.8 µM (inactive) | 52.2 µM (inactive) | – | > 100 µM (inactive) | > 100 µM (inactive)
10 | Cc1cnc2sn(-c3ccc(Br)cc3)c(=O)c2c1 | 36.6 µM (inactive) | 26.9 µM (inactive) | > 100 µM (inactive) | 30.7 µM (inactive) | 40 µM (inactive) | 30.5 µM (inactive) | 33 µM (inactive) | 93.5 µM (inactive) | 42.8 µM (inactive) | 42.6 µM (inactive) | 23.3 µM (inactive) | > 100 µM (inactive) | 37.5 µM (inactive) | – | 41.2 µM (inactive) | 28.6 µM (inactive) | 35 µM (inactive) | 33.2 µM (inactive) | 22.7 µM (inactive) | 28.9 µM (inactive)
11 | O=[N+]([O-])c1ccc2c(c1)Sc1ccccc1N2 | 8.51 µM (inactive) | 6.12 µM (inactive) | – | 17.2 µM (inactive) | 3.72 µM (inactive) | 46.1 µM (inactive) | 7.35 µM (inactive) | > 100 µM (inactive) | 9.57 µM (inactive) | 9.33 µM (inactive) | 41.3 µM (inactive) | 6.12 µM (inactive) | 64.3 µM (inactive) | 14.1 µM (inactive) | 11.4 µM (inactive) | 43.9 µM (inactive) | > 100 µM (inactive) | 5.79 µM (inactive) | > 100 µM (inactive) | > 100 µM (inactive)
12 | CCN1CSC(=S)N(CC)C1 | > 100 µM (inactive) | > 100 µM (inactive) | > 100 µM (inactive) | > 100 µM (inactive) | 46.8 µM (inactive) | 19.5 µM (inactive) | 48.3 µM (inactive) | > 100 µM (inactive) | 41.3 µM (inactive) | 76.9 µM (inactive) | – | 79.8 µM (inactive) | 28.6 µM (inactive) | 27.8 µM (inactive) | > 100 µM (inactive) | 36.6 µM (inactive) | > 100 µM (inactive) | 50.9 µM (inactive) | > 100 µM (inactive) | 41.1 µM (inactive)
13 | Cc1ccc(S(=O)(=O)Oc2nc3ccccc3nc2OS(=O)(=O)c2ccc(C)cc2)cc1 | > 100 µM (inactive) | – | > 100 µM (inactive) | > 100 µM (inactive) | > 100 µM (inactive) | > 100 µM (inactive) | > 100 µM (inactive) | > 100 µM (inactive) | > 100 µM (inactive) | 28.5 µM (inactive) | > 100 µM (inactive) | > 100 µM (inactive) | > 100 µM (inactive) | > 100 µM (inactive) | > 100 µM (inactive) | 25.9 µM (inactive) | > 100 µM (inactive) | 40.9 µM (inactive) | > 100 µM (inactive) | > 100 µM (inactive)
14 | Oc1ccc(/C=C/c2ccc3cccc(O)c3n2)cc1O | 4.23 µM (inactive) | 15.9 µM (inactive) | 11.9 µM (inactive) | 36.1 µM (inactive) | 5.9 µM (inactive) | 23 µM (inactive) | – | 9.31 µM (inactive) | 3.77 µM (inactive) | 3.02 µM (inactive) | 4.48 µM (inactive) | 5.41 µM (inactive) | 3.24 µM (inactive) | 11.5 µM (inactive) | 6.11 µM (inactive) | 4.24 µM (inactive) | 1.61 µM (inactive) | 0.692 µM (active) | 10.8 µM (inactive) | 14.7 µM (inactive)
15 | COc1ccc(-n2cnc3c(N)nc(N)nc32)cc1 | 93.3 µM (inactive) | > 100 µM (inactive) | 54.2 µM (inactive) | 25.6 µM (inactive) | > 100 µM (inactive) | 57.8 µM (inactive) | > 100 µM (inactive) | 85.7 µM (inactive) | > 100 µM (inactive) | > 100 µM (inactive) | – | > 100 µM (inactive) | > 100 µM (inactive) | 54.8 µM (inactive) | 24.8 µM (inactive) | > 100 µM (inactive) | > 100 µM (inactive) | > 100 µM (inactive) | 64.4 µM (inactive) | > 100 µM (inactive)

Source: ChEMBL document CHEMBL1201862, “PubChem BioAssay data set” (2004)
